Test system: P12-Ichikawa
Experiment: cell viability relative to DMSO control; higher = less cytotoxic
Conditions: 48 h
How it was run: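 Viability, reported as a per-plate percentage of DMSO wells with cell-free wells as background, came from CellTiter-Glo One luminescence. Reading took place after 48 h at 37°C. Before that, NOMO1 or SEM (500 cells/well) or P12-Ichikawa (1000 cells/well) leukemia cells, adapted for at least four passages in each medium, were seeded in 1536-well plates (5 μl) and pin-dosed with library compounds in DMSO, 47 μM to 0.79 nM over 11 threefold points.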

[1] = HPLM + 10% dialyzed FBS, 0.000781 µM
[2] = HPLM + 10% dialyzed FBS, 0.00234 µM
[3] = HPLM + 10% dialyzed FBS, 0.00702 µM
[4] = HPLM + 10% dialyzed FBS, 0.0211 µM
[5] = HPLM + 10% dialyzed FBS, 0.0632 µM
[6] = HPLM + 10% dialyzed FBS, 0.19 µM
[7] = HPLM + 10% dialyzed FBS, 0.569 µM
[8] = HPLM + 10% dialyzed FBS, 1.71 µM
[9] = HPLM + 10% dialyzed FBS, 5.12 µM
[10] = HPLM + 10% dialyzed FBS, 15.4 µM
[11] = HPLM + 10% dialyzed FBS, 46.1 µM
[12] = RPMI 5 mM glucose + 10% FBS, 0.000781 µM
[13] = RPMI 5 mM glucose + 10% FBS, 0.00234 µM
[14] = RPMI 5 mM glucose + 10% FBS, 0.00702 µM
[15] = RPMI 5 mM glucose + 10% FBS, 0.0211 µM
[16] = RPMI 5 mM glucose + 10% FBS, 0.0632 µM
[17] = RPMI 5 mM glucose + 10% FBS, 0.19 µM
[18] = RPMI 5 mM glucose + 10% FBS, 0.569 µM
[19] = RPMI 5 mM glucose + 10% FBS, 1.71 µM
[20] = RPMI 5 mM glucose + 10% FBS, 5.12 µM
[21] = RPMI 5 mM glucose + 10% FBS, 15.4 µM
[22] = RPMI 5 mM glucose + 10% FBS, 46.1 µM
[23] = RPMI 5 mM glucose + 10% dialyzed FBS, 0.000781 µM
[24] = RPMI 5 mM glucose + 10% dialyzed FBS, 0.00234 µM
[25] = RPMI 5 mM glucose + 10% dialyzed FBS, 0.00702 µM
[26] = RPMI 5 mM glucose + 10% dialyzed FBS, 0.0211 µM
[27] = RPMI 5 mM glucose + 10% dialyzed FBS, 0.0632 µM
[28] = RPMI 5 mM glucose + 10% dialyzed FBS, 0.19 µM
[29] = RPMI 5 mM glucose + 10% dialyzed FBS, 0.569 µM
[30] = RPMI 5 mM glucose + 10% dialyzed FBS, 1.71 µM
[31] = RPMI 5 mM glucose + 10% dialyzed FBS, 5.12 µM
[32] = RPMI 5 mM glucose + 10% dialyzed FBS, 15.4 µM
[33] = RPMI 5 mM glucose + 10% dialyzed FBS, 46.1 µM

| SMILES | cell viability [1] | cell viability [2] | cell viability [3] | cell viability [4] | cell viability [5] | cell viability [6] | cell viability [7] | cell viability [8] | cell viability [9] | cell viability [10] | cell viability [11] | cell viability [12] | cell viability [13] | cell viability [14] | cell viability [15] | cell viability [16] | cell viability [17] | cell viability [18] | cell viability [19] | cell viability [20] | cell viability [21] | cell viability [22] | cell viability [23] | cell viability [24] | cell viability [25] | cell viability [26] | cell viability [27] | cell viability [28] | cell viability [29] | cell viability [30] | cell viability [31] | cell viability [32] | cell viability [33] |
| --- | --- | --- | --- | --- | --- | --- | --- | --- | --- | --- | --- | --- | --- | --- | --- | --- | --- | --- | --- | --- | --- | --- | --- | --- | --- | --- | --- | --- | --- | --- | --- | --- | --- |
| Cc1ccc(F)c(NC(=O)Nc2ccc(-c3cccc4[nH]nc(N)c34)cc2)c1 | 102% | 113% | 107% | 112% | 112% | 115% | 115% | 120% | 116% | 111% | 81.5% | 112% | 113% | 113% | 112% | 118% | 126% | 108% | 126% | 120% | 132% | 95.3% | 105% | 122% | 123% | 122% | 127% | 127% | 97.2% | 132% | 131% | 116% | 92.6% |
| Cn1c(=O)c2c(ncn2CC(O)CO)n(C)c1=O (configuration not stated) | 113% | 112% | 110% | 111% | 114% | 116% | 115% | 111% | 108% | 117% | 124% | 109% | 104% | 118% | 119% | 124% | 122% | 127% | 117% | 128% | 134% | 128% | 112% | 114% | 114% | 116% | 114% | 115% | 124% | 117% | 125% | 126% | 119% |
| OC1=C(C=CC=C1)C2=CC=C(C=C2)C3=CSC4=C3C(=C(/C#N)C(=O)N4)/O | 124% | 127% | 124% | 124% | 119% | 119% | 112% | 116% | 114% | 111% | 110% |  |  |  |  |  |  |  |  |  |  |  |  |  |  |  |  |  |  |  |  |  |  |
| Cc1cnc(Nc2ccc(OCCN3CCCC3)cc2)nc1Nc1cccc([S+](=O)([O-])NC(C)(C)C)c1 | 100% | 108% | 110% | 110% | 115% | 111% | 119% | 114% | 112% | 108% | 112% | 110% | 116% | 110% | 119% | 120% | 116% | 120% | 117% | 110% | 108% | 112% | 91.8% | 101% | 109% | 106% | 117% | 109% | 111% | 118% | 110% | 110% | 97.6% |
| Clc1ccc(COC(Cn2ccnc2)c2ccc(Cl)cc2Cl)cc1 (configuration not stated) | 110% | 109% | 115% | 117% | 124% | 121% | 120% | 117% | 114% | 116% | 106% | 116% | 117% | 114% | 126% | 129% | 123% | 121% | 130% | 126% | 104% | 91.3% | 108% | 114% | 123% | 113% | 124% | 124% | 120% | 107% | 103% | 96.8% | 85.7% |
| CN(C(=O)c1ccc(F)cc1C(F)(F)F)C1CCN(c2nnc(-c3ccnn3C)c3ccccc23)CC1 | 74.9% | 88.9% | 77.9% | 85.9% | 89.2% | 81.8% | 82.1% | 84.5% | 79.4% | 85.4% | 47.3% | 75.1% | 83.3% | 81.5% | 76.2% | 78.5% | 81.5% | 79.4% | 71.7% | 75.3% | 82.8% | 39.6% | 73.7% | 70.6% | 72.8% | 78.5% | 79.9% | 84.8% | 75.9% | 75.1% | 74.3% | 77.7% | 38.2% |
| O=P(O)(O)C(O)(Cc1cccnc1)P(=O)(O)[O][Na] (configuration not stated) | 88.6% | 81.8% | 99.2% | 11.3% | 95.5% | 94.2% | 105% | 100% | 105% | 105% | 110% | 87.4% | 98.6% | 98.9% | 16.4% | 94.5% | 98.3% | 100% | 107% | 108% | 118% | 112% | 85.3% | 91.3% | 91.2% | 17.4% | 97.7% | 100% | 95.1% | 103% | 100% | 104% | 104% |
| O=C(Oc1ccc([N+](=O)[O-])cc1)N1CCN(Cc2cccc(Oc3ccccc3)c2)CC1 | 96.8% | 101% | 106% | 116% | 113% | 112% | 114% | 111% | 113% | 102% | 104% | 105% | 98% | 112% | 114% | 111% | 112% | 122% | 118% | 102% | 102% | 107% | 101% | 92.2% | 100% | 101% | 105% | 101% | 105% | 114% | 103% | 109% | 108% |
| CCOC(=O)c1ncn2c1CN(C)C(=O)c1cc(F)ccc1-2 | 120% | 113% | 113% | 117% | 107% | 107% | 111% | 106% | 72% | 67.7% | 62% | 106% | 113% | 109% | 114% | 116% | 126% | 103% | 106% | 92.2% | 71.7% | 48.9% | 112% | 119% | 107% | 119% | 123% | 113% | 116% | 102% | 84.8% | 74.4% | 46.7% |
| CC(C)[C@@H](N(CCCN)C(=O)C1=CC=C(C)C=C1)C/2=C(\CC3=CC=CC=C3)C(=O)C4=C(O2)C=C(Cl)C=C4 | 37.7% | 12.6% | 11.5% | 14.2% | 9.91% | 11.7% | 12.2% | 11% | 10.3% | 11.8% | 12.8% | 18.4% | 15.8% | 15% | 18.5% | 18% | 17.6% | 14% | 17.7% | 15.8% | 15.7% | 9.01% | 70.7% | 20.4% | 20.7% | 21.9% | 22.4% | 22.5% | 18.6% | 20.9% | 21.2% | 19.8% | 16.2% |
| CN[C@@H](C)C(=O)N[C@H]1CCCC[C@H]2CC[C@@H](C(=O)N[C@@H](c3ccccc3)c3cn(CCCCc4ccc(CCCCn5cc([C@@H](NC(=O)[C@@H]6CC[C@@H]7CCCC[C@H](NC(=O)[C@H](C)NC)C(=O)N76)c6ccccc6)nn5)cc4)nn3)N2C1=O | 103% | 101% | 99.3% | 95.4% | 102% | 99.8% | 94.8% | 104% | 96.3% | 96.8% | 94.7% | 98.6% | 104% | 92% | 106% | 92.8% | 99.7% | 115% | 97.9% | 96.2% | 97.1% | 79.9% | 90.8% | 110% | 94.7% | 84.7% | 93% | 101% | 97.3% | 98% | 92.1% | 93.5% | 72.9% |
| CC(Oc1ccc(O)cc1)(P(=O)(O)O)P(=O)(O)O | 102% | 101% | 94.9% | 100% | 101% | 99.2% | 90.3% | 94.9% | 85.3% | 67.8% | 46.7% | 92.5% | 97.8% | 95% | 93.7% | 100% | 98.2% | 82.2% | 87.2% | 81.5% | 42.8% | 33.6% | 97.1% | 97.5% | 88.6% | 98.4% | 107% | 101% | 90.7% | 93.1% | 87.6% | 47.2% | 34.6% |
| c1ccc2c(Oc3nc(Nc4ccc(N5CCOCC5)cc4)c4ncn(C5CCCCC5)c4n3)cccc2c1 | 116% | 118% | 126% | 132% | 126% | 121% | 126% | 132% | 134% | 137% | 130% |  |  |  |  |  |  |  |  |  |  |  |  |  |  |  |  |  |  |  |  |  |  |
| CCOC(=O)c1ccc(C#Cc2ccc3c(c2)C(C)(C)CCS3)nc1 | 98.6% | 108% | 102% | 105% | 105% | 118% | 110% | 110% | 108% | 107% | 78.7% | 95.2% | 96.1% | 106% | 109% | 108% | 106% | 101% | 106% | 106% | 110% | 94.5% | 98.8% | 99.9% | 109% | 110% | 108% | 107% | 102% | 113% | 104% | 96.1% | 102% |
| N=C(N)c1ccc(OCCCCCOc2ccc(C(=N)N)cc2)cc1 | 101% | 108% | 108% | 110% | 111% | 102% | 101% | 103% | 106% | 97.1% | 79.5% | 104% | 109% | 109% | 114% | 116% | 111% | 107% | 104% | 117% | 85.3% | 62.8% | 101% | 115% | 123% | 125% | 118% | 114% | 118% | 108% | 107% | 102% | 81.5% |
| CC(C)(Cc1ccc2ccccc2c1)NC[C@@H](O)COc1cccc(Cl)c1C#N | 123% | 124% | 126% | 122% | 121% | 120% | 123% | 116% | 123% | 117% | 10.7% |  |  |  |  |  |  |  |  |  |  |  |  |  |  |  |  |  |  |  |  |  |  |

Reference: the supplement of paper PMC11451515
